Where two headings read alike, the source gives them in different places.
Assays:
Type in all cases: cell-based
MV-4-11 cells = assay: MV-4-11 cell proliferation inhibition (MTS assay); settings: Homo sapiens
Experimental: MV-4-11 cells were cultured in IMDM medium supplemented with 10% fetal bovine serum and collected. The cell concentration was diluted according to a 7-day incubation period, and 180 µL of cell suspension was added to each well of a 96-well plate, resulting in 2,000 cells per well. […] The test compounds were prepared from a 10 mM stock solution and serially diluted in a five-fold gradient, and 20 µL of the diluted compound solution was added to each compound-treated well (final DMSO concentration 0.2%). The cells were incubated in a 37 °C, 5% CO2 incubator for 7 days. After incubation, the reaction solution was prepared according to the MTS assay kit instructions (Promega, G5430), and 20 µL was added to each well. The plate was further incubated at 37 °C with 5% CO2 for 3-4 hours. The absorbance at 490 nm was measured using a microplate reader, and the absorbance at 690 nm was used as the background value. The final raw data were calculated as OD490 - OD690. […] The IC50 values for cell proliferation inhibition were determined using GraphPad Prism 5.0. Each experiment was repeated three times, and three parallel replicates were performed in each experiment to calculate the mean value and standard deviation.
Table 3. Inhibitory Activity of Compounds on MV-4-11 Cell Proliferation

MM.1S cells = assay: MM.1S cell proliferation inhibition (MTS assay); settings: Homo sapiens, MM1.S, 168 h, 7 days incubation, read-out: MM1.S (IC50, Inhibitory Activity of Compounds on MM.1S Cell Proliferation)
Experimental: The cell concentration was diluted according to a 7-day incubation period, and 180 µL of cell suspension was added to each well of a 96-well plate, with 20,000 cells per well. […] The test compounds were prepared from a 10 mM stock solution and serially diluted in a 5-fold gradient, and 20 µL of the diluted solution was added to each compound-treated well (final DMSO concentration also 0.2%). The cells were incubated in a 37 °C, 5% CO2 incubator for 7 days. After incubation, the reaction solution was prepared according to the MTS assay kit instructions (Promega, G5430), and 20 µL was added to each well. The plate was incubated at 37 °C with 5% CO2 for 3-4 hours. The absorbance at 490 nm was measured using a microplate reader, and the absorbance at 690 nm was used as the background value. […] The IC50 values for cell proliferation inhibition were determined using GraphPad Prism 5.0. Each experiment was repeated three times, and three parallel replicates were performed in each experiment to calculate the mean value and standard deviation.
Inhibitory Activity of Compounds on MM.1S Cell Proliferation

Mino cells = assay: Mino cell proliferation inhibition (MTS assay); settings: Homo sapiens, 72 h, 3 days incubation, read-out: Mino (IC50, Inhibitory Activity of Compounds on Mino Cell Proliferation)
Experimental: The cell concentration was diluted according to a 3-day incubation period, and 90 µL of cell suspension was added to each well of a 96-well plate, resulting in 8,000 cells per well. […] The test compounds were prepared from a 10 mM stock solution and serially diluted in a five-fold gradient. Similarly, 10 µL of the diluted compound solution was added to each compound-treated well (final DMSO concentration 0.2%).
The cells were incubated in a 37 °C, 5% CO2 incubator for 3 days. After incubation, the reaction solution was prepared according to the MTS assay kit instructions (Promega, G5430), and 20 µL was added to each well. The plate was further incubated at 37 °C with 5% CO2 for 3-4 hours. The absorbance at 490 nm was measured using a microplate reader, and the absorbance at 690 nm was used as the background value. The final raw data were calculated as OD490 - OD690. […] The IC50 values for cell proliferation inhibition were determined using GraphPad Prism 5.0. Each experiment was repeated three times, and three parallel replicates were performed in each experiment to calculate the mean value and standard deviation.
Table 2. Inhibitory Activity of Compounds on Mino Cell Proliferation

[1] = MV4-11, reference compounds, read-out: cell growth inhibitory activity (IC50)
[2] = MV4-11, 168 h, 7 days incubation, MTS, read-out: MV-411 (IC50, Inhibitory Activity of Compounds on MV-4-11 Cell Proliferation)

| IC50 (MV-4-11 cells; [1]) [nM] | IC50 (MM.1S cells) [nM] | IC50 (MV-4-11 cells; [2]) [nM] | SMILES | IC50 (Mino cells) [nM] |
| --- | --- | --- | --- | --- |
| > 20000 | – | – | O=C1CC[C@H](N2Cc3c(OCc4ccc(CN5CCOCC5)cc4)cccc3C2=O)C(=O)N1 [CC-220, reference compound] | – |
| – | < 200 | 200 to 1000 | N#Cc1ccc(N2CCC(Sc3ccc(COc4cccc5c(=O)n([C@H]6CCC(=O)NC6=O)[nH]c45)cn3)CC2)c(F)c1 [Compound D3, (S)-4-(4-((5-(((2-(2,6-dioxopiperidin-3-yl)-3-oxo-2,3-dihydro-1H-indazol-7-yl)oxy)methyl)pyridin-2-yl)thio)piperidin-1-yl)-3-fluorobenzonitrile] | < 200 |
| – | < 200 | < 200 | O=C1CCC(n2[nH]c3c(OCc4ccc(CN5CCN(c6ccc(C(F)(F)F)cc6)CC5)cc4)cccc3c2=O)C(=O)N1 (centres unmarked) [Compound D11, 3-(3-Oxo-7-((4-((4-(4-(trifluoromethyl)phenyl)piperazin-1-yl)methyl)benzyl)oxy)-1,3-dihydro-2H-indazol-2-yl)piperidine-2,6-dione] | 200 to 1000 |
| – | < 200 | < 200 | O=C1CCC(n2[nH]c3c(OCc4ccc(CN5CCN(c6ccc(Cl)cc6Cl)CC5)cc4)cccc3c2=O)C(=O)N1 (centres unmarked) [Compound D12, 3-(7-((4-((4-(2,4-dichlorophenyl)piperazin-1-yl)methyl)benzyl)oxy)-3-oxo-1,3-dihydro-2H-indazol-2-yl)piperidine-2,6-dione] | 200 to 1000 |
| – | < 200 | 200 to 1000 | O=C1CCC(n2[nH]c3c(OCc4ccc(CN5CC(N6CCOCC6)C5)cc4)cccc3c2=O)C(=O)N1 (centres unmarked) [Compound D13, 3-(7-((4-((3-morpholinoazetidin-1-yl)methyl)benzyl)oxy)-3-oxo-1,3-dihydro-2H-indazol-2-yl)piperidine-2,6-dione] | 1000 to 10000 |
| – | < 200 | < 200 | O=C1CCC(n2[nH]c3c(OCc4ccc(CN5CCN(c6ccc(Cl)cc6Cl)CC5)cc4)cc(F)cc3c2=O)C(=O)N1 (centres unmarked) [Compound D16, 3-(7-((4-((4-(2,4-dichlorophenyl)piperazin-1-yl)methyl)benzyl)oxy)-5-fluoro-3-oxo-1,3-dihydro-2H-indazol-2-yl)piperidine-2,6-dione] | < 200 |
| – | < 200 | < 200 | O=C1CCC(n2[nH]c3c(OCc4ccc(CN5CCN(c6ccc(C(F)(F)F)cc6)CC5)cc4)cc(F)cc3c2=O)C(=O)N1 (centres unmarked) [Compound D17, 3-(5-Fluoro-3-oxo-7-((4-((4-(4-(trifluoromethyl)phenyl)piperazin-1-yl)methyl)benzyl)oxy)-1,3-dihydro-2H-indazol-2-yl)piperidine-2,6-dione] | < 200 |
| – | < 200 | 200 to 1000 | O=C1CCC(n2[nH]c3c(OCc4ccc(CN5CC(N6CCOCC6)C5)cc4)cc(F)cc3c2=O)C(=O)N1 (centres unmarked) [Compound D20, 3-(5-Fluoro-7-((4-((3-morpholinoazetidin-1-yl)methyl)benzyl)oxy)-3-oxo-1,3-dihydro-2H-indazol-2-yl)piperidine-2,6-dione] | 200 to 1000 |
| – | < 200 | < 200 | O=C1CCC(n2[nH]c3c(OCc4ccc(CN5CCN(c6ccc(Cl)cc6F)CC5)cc4)cc(F)cc3c2=O)C(=O)N1 (centres unmarked) [Compound D21, 3-(7-((4-((4-(4-chloro-2-fluorophenyl)piperazin-1-yl)methyl)benzyl)oxy)-5-fluoro-3-oxo-1,3-dihydro-2H-indazol-2-yl)piperidine-2,6-dione] | 200 to 1000 |
| – | < 200 | > 20000 | Cn1c2c(OCc3ccc(CN4CCOCC4)cc3)cccc2c(=O)n1C1CCC(=O)NC1=O (centres unmarked) [Compound D22, 3-(1-Methyl-7-((4-(morpholinomethyl)benzyl)oxy)-3-oxo-1,3-dihydro-2H-indazol-2-yl)piperidine-2,6-dione] | > 10000 |
| > 20000 | – | – | Nc1cccc2c1C(=O)N(C1CCC(=O)NC1=O)C2=O (centres unmarked) [pomalidomide, reference compound] | – |

Source: patent publication EP4778920A1, “INDAZOLONE COMPOUND, PREPARATION METHOD THEREFOR, PHARMACEUTICAL COMPOSITION, AND USE” (Shanghai Institute of Materia Medica, Chinese Academy of …, priority 2023, dated 2025)
